Measured values taken from ChEMBL document CHEMBL1201862, “PubChem BioAssay data set” (2004).
Activity calls are given as the source filed them.

How the values were obtained:
[1] = THP-1 cell cytotoxicity, dose response, cytotoxicity control for non-replicating M. tuberculosis project (AID 489025); assay type: functional
[2] = Counterscreen for activators of the function of SWI/SNF related, matrix associated, actin dependent regulator of chromatin, subfamily a, member 2 (SMARCA2, BRM): Luminescence-based cell-based high throughput dose response assay to identify non-selective compounds using the VP16 reporter assay.; assay type: functional
cells [3] = assay type: functional
[4] = molecular target: SWI/SNF-related matrix-associated actin-dependent regulator of chromatin subfamily A member 2 (Homo sapiens, UniProt P51531); test: Luminescence-based cell-based high throughput dose response assay to identify activators of the function of SWI/SNF related, matrix associated, actin dependent regulator of chromatin, subfamily a, member 2 (SMARCA2, BRM).; assay type: functional
Sequence of SWI/SNF-related matrix-associated actin-dependent regulator of chromatin subfamily A member 2 (P51531 whole entry): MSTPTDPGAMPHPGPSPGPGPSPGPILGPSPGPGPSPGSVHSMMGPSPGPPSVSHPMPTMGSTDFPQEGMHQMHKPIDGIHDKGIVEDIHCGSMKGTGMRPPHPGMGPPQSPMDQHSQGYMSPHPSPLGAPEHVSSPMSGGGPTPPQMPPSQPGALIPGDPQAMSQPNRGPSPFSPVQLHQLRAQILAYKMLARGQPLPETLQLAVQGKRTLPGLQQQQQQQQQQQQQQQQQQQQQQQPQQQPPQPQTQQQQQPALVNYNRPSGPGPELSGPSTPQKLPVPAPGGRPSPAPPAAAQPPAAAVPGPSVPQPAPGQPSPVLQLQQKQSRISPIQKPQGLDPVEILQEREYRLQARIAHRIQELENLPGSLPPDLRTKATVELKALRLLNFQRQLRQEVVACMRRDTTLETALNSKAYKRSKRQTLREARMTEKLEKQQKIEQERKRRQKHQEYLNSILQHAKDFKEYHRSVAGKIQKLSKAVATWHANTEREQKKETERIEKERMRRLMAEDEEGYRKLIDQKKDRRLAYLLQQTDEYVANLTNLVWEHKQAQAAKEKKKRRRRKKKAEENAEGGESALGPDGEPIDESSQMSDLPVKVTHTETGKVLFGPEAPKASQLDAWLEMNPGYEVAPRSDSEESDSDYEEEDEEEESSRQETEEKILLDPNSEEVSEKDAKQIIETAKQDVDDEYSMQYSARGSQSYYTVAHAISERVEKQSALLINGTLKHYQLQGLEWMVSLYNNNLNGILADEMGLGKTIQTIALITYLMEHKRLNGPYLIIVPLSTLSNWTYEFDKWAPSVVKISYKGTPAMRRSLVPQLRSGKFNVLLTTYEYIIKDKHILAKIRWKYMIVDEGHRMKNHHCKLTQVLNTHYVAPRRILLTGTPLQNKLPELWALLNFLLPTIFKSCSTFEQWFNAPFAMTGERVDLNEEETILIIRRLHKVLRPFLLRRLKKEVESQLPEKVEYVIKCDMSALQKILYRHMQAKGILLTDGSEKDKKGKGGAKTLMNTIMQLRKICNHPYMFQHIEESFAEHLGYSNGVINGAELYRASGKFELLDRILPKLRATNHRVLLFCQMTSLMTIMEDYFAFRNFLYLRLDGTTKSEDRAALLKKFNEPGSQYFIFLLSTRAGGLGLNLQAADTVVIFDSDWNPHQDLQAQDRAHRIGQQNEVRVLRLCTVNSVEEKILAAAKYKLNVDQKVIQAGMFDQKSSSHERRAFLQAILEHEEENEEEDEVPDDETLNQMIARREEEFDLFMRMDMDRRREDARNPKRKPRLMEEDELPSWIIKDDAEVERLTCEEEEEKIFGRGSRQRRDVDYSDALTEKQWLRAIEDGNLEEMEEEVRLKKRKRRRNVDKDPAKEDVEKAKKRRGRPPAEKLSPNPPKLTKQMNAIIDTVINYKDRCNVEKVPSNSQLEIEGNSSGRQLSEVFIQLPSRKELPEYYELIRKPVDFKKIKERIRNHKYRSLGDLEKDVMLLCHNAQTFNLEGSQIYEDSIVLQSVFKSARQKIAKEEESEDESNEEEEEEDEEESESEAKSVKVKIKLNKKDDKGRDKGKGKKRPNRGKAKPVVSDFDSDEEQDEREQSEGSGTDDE

[5] = Vero E6 cell cytotoxicity, dose response, cytotoxicity control for non-replicating M. tuberculosis project, secondary assay (AID 492998); assay type: functional, VeroE6; conditions: Vero C1008
SUMO E1/E2 = SUMO E1/E2 (Homo sapiens, UniProt P63279+Q9UBE0+Q9UBT2); test: SAR analysis of SUMOylation using HTRF in an in-Vitro dose response assay. [Related pubchem assays (depositor defined):AID2006, AID2011, AID2018, AID2069, AID2658]; assay type: functional
Sequence of SUMO E1/E2 (Q9UBE0 whole entry): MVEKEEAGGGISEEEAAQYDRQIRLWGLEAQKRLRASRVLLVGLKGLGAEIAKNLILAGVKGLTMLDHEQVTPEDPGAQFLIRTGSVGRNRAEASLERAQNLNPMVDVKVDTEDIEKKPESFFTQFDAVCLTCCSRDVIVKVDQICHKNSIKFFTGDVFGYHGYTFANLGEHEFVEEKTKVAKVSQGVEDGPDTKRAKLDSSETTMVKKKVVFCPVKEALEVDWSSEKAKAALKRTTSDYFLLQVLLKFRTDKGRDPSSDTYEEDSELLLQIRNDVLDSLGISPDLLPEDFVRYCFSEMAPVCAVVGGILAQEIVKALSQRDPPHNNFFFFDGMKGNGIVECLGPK
Sequence of SUMO E1/E2 (Q9UBT2 whole entry): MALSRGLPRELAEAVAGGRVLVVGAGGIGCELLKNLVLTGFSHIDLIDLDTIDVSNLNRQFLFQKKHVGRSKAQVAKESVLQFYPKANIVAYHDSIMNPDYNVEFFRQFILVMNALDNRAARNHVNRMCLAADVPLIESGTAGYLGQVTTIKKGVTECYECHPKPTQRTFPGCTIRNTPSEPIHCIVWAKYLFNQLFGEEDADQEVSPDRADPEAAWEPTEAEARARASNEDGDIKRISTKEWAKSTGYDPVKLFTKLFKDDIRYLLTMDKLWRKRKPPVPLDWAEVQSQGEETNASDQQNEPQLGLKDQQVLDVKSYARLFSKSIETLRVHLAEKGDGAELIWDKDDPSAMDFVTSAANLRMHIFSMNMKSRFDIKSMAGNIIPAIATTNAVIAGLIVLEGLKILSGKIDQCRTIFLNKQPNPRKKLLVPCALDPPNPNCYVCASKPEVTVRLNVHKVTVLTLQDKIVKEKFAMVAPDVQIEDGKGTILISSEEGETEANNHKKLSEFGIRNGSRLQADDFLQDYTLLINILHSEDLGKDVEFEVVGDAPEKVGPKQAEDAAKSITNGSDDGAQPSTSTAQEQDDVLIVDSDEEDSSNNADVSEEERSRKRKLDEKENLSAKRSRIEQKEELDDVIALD
Sequence of SUMO E1/E2 (P63279 whole entry): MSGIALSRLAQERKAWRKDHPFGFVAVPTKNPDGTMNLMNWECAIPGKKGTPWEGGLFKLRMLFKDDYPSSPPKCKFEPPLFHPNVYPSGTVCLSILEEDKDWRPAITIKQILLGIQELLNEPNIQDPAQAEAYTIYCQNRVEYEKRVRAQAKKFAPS

[6] = Counterscreen for AddAB inhibitors: absorbance-based bacterial cell-based high throughput dose response assay for inhibitors of bacterial viability. [Related pubchem assays (depositor defined):AID435030, AID449728, AID449731, AID488942, AID488955, AID488956]; assay type: functional
Exodeoxyribonuclease V = molecular target: T1, Exodeoxyribonuclease V (Escherichia coli (strain K12), UniProt P04993+P07648+P08394); test: RecBCD inhibition via phage-restricted bacterial growth – absorbance, V66 E. coli, mutant T4 phage, counter-screen for AddAB inhibitor project, dose response (AID 492957); assay type: functional, cell-based, Escherichia coli str. K-12 substr. MG1655
T1 sequence (P04993 whole entry): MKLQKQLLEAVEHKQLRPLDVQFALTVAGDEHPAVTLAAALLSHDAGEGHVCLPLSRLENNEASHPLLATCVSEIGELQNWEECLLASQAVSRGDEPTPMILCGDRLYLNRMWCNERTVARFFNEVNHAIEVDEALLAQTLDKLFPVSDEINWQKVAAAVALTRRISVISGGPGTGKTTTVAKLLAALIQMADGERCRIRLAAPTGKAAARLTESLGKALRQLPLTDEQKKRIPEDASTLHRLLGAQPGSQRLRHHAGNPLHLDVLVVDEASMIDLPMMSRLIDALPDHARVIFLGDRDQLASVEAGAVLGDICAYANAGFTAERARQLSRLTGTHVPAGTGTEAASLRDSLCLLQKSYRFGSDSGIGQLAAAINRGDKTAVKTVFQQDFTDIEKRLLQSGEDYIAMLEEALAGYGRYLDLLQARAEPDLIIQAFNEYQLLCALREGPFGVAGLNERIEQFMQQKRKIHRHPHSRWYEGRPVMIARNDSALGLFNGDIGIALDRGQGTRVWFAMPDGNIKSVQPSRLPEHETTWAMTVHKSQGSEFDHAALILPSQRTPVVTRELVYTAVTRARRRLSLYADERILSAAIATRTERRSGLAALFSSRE
T1 sequence (P07648 whole entry): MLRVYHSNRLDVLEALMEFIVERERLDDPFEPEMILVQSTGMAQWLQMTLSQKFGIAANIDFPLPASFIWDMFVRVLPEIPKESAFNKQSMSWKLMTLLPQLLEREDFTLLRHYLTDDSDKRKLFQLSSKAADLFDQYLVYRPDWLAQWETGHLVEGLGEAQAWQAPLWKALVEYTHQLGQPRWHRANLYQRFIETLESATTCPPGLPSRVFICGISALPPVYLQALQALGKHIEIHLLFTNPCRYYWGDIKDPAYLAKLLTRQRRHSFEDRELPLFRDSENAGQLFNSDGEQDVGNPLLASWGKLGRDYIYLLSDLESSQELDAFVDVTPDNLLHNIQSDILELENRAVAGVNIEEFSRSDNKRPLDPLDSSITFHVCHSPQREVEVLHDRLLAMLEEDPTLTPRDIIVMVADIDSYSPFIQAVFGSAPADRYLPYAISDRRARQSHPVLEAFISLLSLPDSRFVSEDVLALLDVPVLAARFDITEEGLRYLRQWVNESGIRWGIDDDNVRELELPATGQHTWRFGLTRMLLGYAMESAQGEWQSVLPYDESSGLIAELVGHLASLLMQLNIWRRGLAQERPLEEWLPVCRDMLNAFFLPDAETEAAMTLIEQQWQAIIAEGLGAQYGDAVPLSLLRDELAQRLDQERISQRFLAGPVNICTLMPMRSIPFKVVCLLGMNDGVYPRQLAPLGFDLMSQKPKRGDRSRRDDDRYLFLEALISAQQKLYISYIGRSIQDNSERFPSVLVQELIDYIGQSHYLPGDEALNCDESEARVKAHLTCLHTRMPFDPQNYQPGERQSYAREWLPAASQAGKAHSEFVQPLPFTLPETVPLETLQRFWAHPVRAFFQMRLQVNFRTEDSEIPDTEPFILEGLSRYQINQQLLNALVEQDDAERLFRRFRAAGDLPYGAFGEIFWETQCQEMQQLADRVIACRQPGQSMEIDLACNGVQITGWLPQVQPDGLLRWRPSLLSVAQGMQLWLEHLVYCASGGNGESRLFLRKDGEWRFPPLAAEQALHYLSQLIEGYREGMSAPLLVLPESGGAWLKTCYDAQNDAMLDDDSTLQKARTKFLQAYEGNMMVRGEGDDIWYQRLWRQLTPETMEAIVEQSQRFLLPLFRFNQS
T1 sequence (P08394 whole entry): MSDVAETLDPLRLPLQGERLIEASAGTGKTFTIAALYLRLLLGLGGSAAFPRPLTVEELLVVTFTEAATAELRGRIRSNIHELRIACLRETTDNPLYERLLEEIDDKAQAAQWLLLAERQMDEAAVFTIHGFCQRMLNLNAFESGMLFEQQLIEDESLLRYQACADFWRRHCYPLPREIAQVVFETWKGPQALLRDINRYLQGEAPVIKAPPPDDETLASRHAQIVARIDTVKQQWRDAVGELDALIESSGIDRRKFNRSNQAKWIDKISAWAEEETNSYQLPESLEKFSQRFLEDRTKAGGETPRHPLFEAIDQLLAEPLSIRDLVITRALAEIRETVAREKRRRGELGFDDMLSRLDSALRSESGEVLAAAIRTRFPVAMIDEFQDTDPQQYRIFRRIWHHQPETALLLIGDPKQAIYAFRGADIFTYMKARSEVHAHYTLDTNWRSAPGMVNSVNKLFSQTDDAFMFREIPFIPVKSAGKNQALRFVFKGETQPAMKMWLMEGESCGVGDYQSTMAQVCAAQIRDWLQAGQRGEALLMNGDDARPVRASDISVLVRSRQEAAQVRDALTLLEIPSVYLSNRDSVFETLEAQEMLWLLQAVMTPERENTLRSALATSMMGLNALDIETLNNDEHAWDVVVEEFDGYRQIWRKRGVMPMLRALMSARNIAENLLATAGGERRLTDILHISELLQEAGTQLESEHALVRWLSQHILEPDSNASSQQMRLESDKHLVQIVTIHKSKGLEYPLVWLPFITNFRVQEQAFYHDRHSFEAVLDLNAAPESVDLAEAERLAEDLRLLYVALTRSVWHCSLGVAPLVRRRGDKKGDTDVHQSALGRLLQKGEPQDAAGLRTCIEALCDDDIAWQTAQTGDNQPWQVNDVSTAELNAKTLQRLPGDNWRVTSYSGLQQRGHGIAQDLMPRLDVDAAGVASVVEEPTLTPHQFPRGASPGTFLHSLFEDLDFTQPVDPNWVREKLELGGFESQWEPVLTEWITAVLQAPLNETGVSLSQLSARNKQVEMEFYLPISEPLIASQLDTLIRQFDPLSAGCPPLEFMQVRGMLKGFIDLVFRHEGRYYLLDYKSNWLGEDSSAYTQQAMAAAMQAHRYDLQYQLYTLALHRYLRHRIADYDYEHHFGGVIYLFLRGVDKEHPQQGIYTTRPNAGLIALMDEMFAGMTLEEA

[7] = alpha-synuclein stem-loop luciferase translation blockers – H4 neuroglioma cells, luminescence, confirmation (AID 1988); assay type: functional, cell-based
cells [8] = assay type: functional, cell-based
cells [9] = assay type: functional, cell-based; remark: listed apart in the source
[10] = luciferase reporter signal suppression in cells – H4 neuroglioma cells, luminescence, dose response (AID 1990); assay type: functional, cell-based
[11] = Luminescence Cell-Based Dose Response HTS to Identify Inhibitors of 5'UTR Stem-Loop Driven Prion Protein mRNA Translation in H4 Neuroglioblastoma Cells. [Related pubchem assays: 1827 (Project Summary), 1813 (Primary HTS)]; assay type: functional
Mu-type opioid receptor = Mu-type opioid receptor (Homo sapiens, UniProt P35372); test: (§1) Counterscreen for agonists of heterodimerization of the mu 1 (OPRM1) and delta 1 (OPRD1) opioid receptors: Luminescence-based cell-based high throughput dose response assay to identify agonists of OPRM1 homodimerization.; assay type: functional
[12] = molecular target: Delta-type opioid receptor (Homo sapiens, UniProt P41143); test: as §1, with “of OPRD1” for “of OPRM1”, “homodimerization. [Related pubchem assays (depositor defined):AID504326, AID504355, AID504692, AID504904, AID504905]” for “homodimerization.”; assay type: functional
[13] = molecular target: 5-hydroxytryptamine receptor 5A (Homo sapiens, UniProt P47898); test: Counterscreen for agonists of OPRM1-OPRD1 heterodimerization: luminescence-based cell-based high throughput dose response assay to identify agonists of 5-hydroxytryptamine (serotonin) 5A receptor (HTR5A). [Related pubchem assays (depositor defined):AID504326, AID504355, AID504692, AID504904, AID504905]; assay type: functional
Cytochrome P450 3A4 = Cytochrome P450 3A4 (Homo sapiens, UniProt P08684);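 also: CYP3A4 tested as one member of a cytochrome P450 panel screen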
Sequence of Cytochrome P450 3A4 (P08684 whole entry): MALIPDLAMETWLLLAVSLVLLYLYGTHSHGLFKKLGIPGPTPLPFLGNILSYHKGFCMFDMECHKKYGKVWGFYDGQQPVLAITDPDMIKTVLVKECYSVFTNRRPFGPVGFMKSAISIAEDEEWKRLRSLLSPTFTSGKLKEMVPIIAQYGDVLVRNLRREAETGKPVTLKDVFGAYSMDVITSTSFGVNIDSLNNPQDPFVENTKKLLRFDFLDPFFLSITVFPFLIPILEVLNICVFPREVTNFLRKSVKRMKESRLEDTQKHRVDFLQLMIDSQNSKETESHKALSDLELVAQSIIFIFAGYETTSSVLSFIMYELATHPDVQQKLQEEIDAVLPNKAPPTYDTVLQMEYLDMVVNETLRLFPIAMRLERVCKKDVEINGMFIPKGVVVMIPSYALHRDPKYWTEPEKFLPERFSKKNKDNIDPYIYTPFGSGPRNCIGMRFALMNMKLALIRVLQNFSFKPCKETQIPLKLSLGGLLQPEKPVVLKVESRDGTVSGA

Cytochrome P450 2C9 = Cytochrome P450 2C9 (Homo sapiens, UniProt P11712)
Sequence of Cytochrome P450 2C9 (P11712 whole entry): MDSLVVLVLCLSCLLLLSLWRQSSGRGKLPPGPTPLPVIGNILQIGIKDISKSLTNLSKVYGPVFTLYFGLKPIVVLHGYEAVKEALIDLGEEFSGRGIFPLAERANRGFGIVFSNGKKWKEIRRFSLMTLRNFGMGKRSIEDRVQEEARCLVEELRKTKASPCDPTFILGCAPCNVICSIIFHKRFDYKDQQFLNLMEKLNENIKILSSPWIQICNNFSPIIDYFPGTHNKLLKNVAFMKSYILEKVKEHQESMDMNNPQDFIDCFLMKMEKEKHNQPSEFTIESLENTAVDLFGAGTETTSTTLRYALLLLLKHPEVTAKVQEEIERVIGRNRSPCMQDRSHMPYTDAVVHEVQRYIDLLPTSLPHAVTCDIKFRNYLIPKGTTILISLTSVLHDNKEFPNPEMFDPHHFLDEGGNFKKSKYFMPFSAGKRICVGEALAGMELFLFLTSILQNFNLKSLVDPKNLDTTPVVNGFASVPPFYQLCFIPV

Cytochrome P450 2D6 = Cytochrome P450 2D6 (Homo sapiens, UniProt P10635);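 also: CYP2D6 member of a cytochrome P450 panel assay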
Sequence of Cytochrome P450 2D6 (P10635 whole entry): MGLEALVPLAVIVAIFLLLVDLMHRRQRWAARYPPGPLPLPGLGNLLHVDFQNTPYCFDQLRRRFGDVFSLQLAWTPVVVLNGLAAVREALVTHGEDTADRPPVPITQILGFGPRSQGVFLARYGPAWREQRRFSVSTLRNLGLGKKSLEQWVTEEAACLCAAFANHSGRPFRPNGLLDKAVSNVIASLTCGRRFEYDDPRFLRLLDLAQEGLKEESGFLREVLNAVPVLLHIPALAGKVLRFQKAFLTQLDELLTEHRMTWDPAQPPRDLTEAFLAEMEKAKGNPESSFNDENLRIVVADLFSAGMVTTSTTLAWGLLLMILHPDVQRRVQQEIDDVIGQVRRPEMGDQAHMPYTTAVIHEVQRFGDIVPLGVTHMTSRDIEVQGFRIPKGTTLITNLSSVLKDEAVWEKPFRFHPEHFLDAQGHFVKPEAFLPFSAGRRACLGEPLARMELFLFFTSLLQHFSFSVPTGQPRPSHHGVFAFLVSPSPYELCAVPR

HEK293 [14] = test: cells; conditions: Homo sapiens
HEK293 [15] = test: cells; conditions: Homo sapiens; remark: listed apart in the source
[16] = Trypanosoma cruzi growth suppression in host cells – NIH3T3 host cells, beta-gal luminescence, confirmation (AID 2044); assay type: functional, cell-based;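 also: intracellular parasites grown in NIH/3T3 mouse fibroblasts as host cells; luminescent beta-galactosidase reporter signal from transgenic T. cruzi replicating inside host cells; inhibitors lower the luminescence signal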
INS1 = test: INS-1E survival protection against cytokine death – cell-based, luminescence, retest, dose response (AID 449756); assay type: functional; conditions: Rattus norvegicus;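 also: cell death triggered by IL-1 beta plus TNF-alpha plus IFN-gamma mixture; protective hits raise ATP signal compared with cytokine alone wells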
[17] = NIH3T3 cell viability loss – ATP luminescence, mouse fibroblasts, counter-screen, dose response (AID 2010); assay type: functional, cell-based;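 also: cells exposed to compound for about 90 hours before reading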
Cytochrome P450 2C19 = Cytochrome P450 2C19 (Homo sapiens, UniProt P33261); test: Cytochrome panel assay with activity outcomes. Panel member name: p450-cyp2c19 Compounds with AC50 equal or less than 10 uM are considered active; assay type: functional; conditions: read-out: AC50
Sequence of Cytochrome P450 2C19 (P33261 whole entry): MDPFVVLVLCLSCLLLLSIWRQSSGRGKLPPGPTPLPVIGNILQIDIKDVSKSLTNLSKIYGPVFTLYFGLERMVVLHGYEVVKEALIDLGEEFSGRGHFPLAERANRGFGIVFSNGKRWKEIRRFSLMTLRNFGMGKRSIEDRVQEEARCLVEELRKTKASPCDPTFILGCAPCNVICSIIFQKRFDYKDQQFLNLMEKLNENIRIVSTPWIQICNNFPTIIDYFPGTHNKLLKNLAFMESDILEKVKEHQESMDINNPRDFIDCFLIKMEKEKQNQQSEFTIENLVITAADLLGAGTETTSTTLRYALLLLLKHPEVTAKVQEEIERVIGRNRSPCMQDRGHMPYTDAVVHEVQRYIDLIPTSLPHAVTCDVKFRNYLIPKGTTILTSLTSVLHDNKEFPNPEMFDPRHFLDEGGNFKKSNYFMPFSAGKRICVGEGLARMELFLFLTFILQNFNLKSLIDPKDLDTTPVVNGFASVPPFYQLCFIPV

## CCS(=O)(=O)c1c([N+](=O)[O-])ncn1C
[1]
  CC50: > 40 µM (active)
[2]
  EC50: > 91.1 µM (inactive)
Cells [3]
  IC50: 16.2 µM (active)
[4]
  EC50: > 91.1 µM (inactive)
[5]
  CC50: > 20 µM (active)

## Cc1ccc(C=Nc2ccccc2C(N)=O)s1
SUMO E1/E2
  IC50: 22.2 µM (active)

## O=C(NC(NC(=S)Nc1ccc(Cl)cc1)C(Cl)(Cl)Cl)c1ccco1 (stereo unspecified)
[6]
  IC50: > 119 µM (inactive)
Exodeoxyribonuclease V
  IC50: > 119 µM (inactive)

## Cc1c(Br)c([N+](=O)[O-])nn1C(C)C(=O)NCc1ccco1 (stereo unspecified)
[6]
  IC50: > 119 µM (inactive)
Exodeoxyribonuclease V
  IC50: > 119 µM (inactive)

## CC(=O)Nc1nc2ccccc2n1CCOc1ccccc1Cl
[7]
  EC50: > 120 µM (not active)
Cells [8]
  EC50: > 350 µM (not active)
[1]
  CC50: > 40 µM (active)
Cells [9]
  EC50: 56.5 µM (active)
[10]
  EC50: 16.7 µM (active)
Cells [3]
  IC50: 2.72 µM (active)
[5]
  CC50: 17.5 µM (active)
[11]
  EC50: > 120 µM (not active)

## CCNS(=O)(=O)c1ccc(NC(=O)Nc2ccc3c(c2)OCO3)cc1
Mu-type opioid receptor
  EC50: 42.8 µM (inactive)
[12]
  EC50: > 92.5 µM (inactive)
[13]
  EC50: > 92.5 µM (inactive)

## Fc1ccc(C2Nc3ccccc3C3C=CCC32)cc1 (stereo unspecified)
SUMO E1/E2
  IC50: > 100 µM (inactive)

## CCOC(=O)c1c(C)c(C(=O)NCCN2CCOCC2)c(C)n1CC
Cytochrome P450 3A4
  AC50: 25.1 µM (inconclusive)
Cytochrome P450 2C9
  AC50: inconclusive
Cytochrome P450 2D6
  AC50: inconclusive

## CN(C)C(=S)N=c1ssc(=S)n1Cc1ccco1
HEK293 [14]
  EC50: > 59.6 µM (inactive)
HEK293 [15]
  EC50: > 59.6 µM (inactive)

## Cc1cc(N/N=C/c2ccc(O)cc2O)nc(-c2ccccc2O)n1
Cells [8]
  EC50: > 350 µM (not active)
Cells [9]
  EC50: 8.62 µM (active)
[16]
  EC50: 1.16 µM (active)
[6]
  IC50: > 119 µM (inactive)
INS1
  AC50: 0.734 µM (active)
Exodeoxyribonuclease V
  IC50: > 119 µM (inactive)
[17]
  EC50: 4.8 µM (active)

## NC(=O)/C(=N\O)c1ccccc1
Cytochrome P450 2C19
  AC50: 0.00562 µM (inconclusive)
Cytochrome P450 2D6
  AC50: inconclusive
